What was measured:
[1] = test system: TSU-PR1 cells; experiment: Matrigel invasion assay (Boyden chamber, MTT), TSU-PR1; assay type: cell-based, human; details: TSU-PR1, 48 hr
Method: (§1) In this method, 4×10^5 tumor cells were plated on the top chamber of the Boyden chemotaxis assay chambers (Costar Transwell plates). The bottom side of the chamber was a 12 μm-pore polycarbonate filter layered with 0.5 mm thick layer of Matrigel. The bottom well contained a chemoattractant, a serum-free culture-conditioned medium from FHS 733 cells, a line of human fetal lung fibroblasts (ATCC No. HTB-157). Cancer cells (4×10^5) were plated in the top wells of the plates. Doxycycline or CMTs were diluted in a serum-free medium to 5 μg/mL, and were added to both top and bottom chambers. […] After 48 hr incubation, MTT was added to both the top and bottom wells (0.5 mg/mL), and incubation was continued for 4 hr. Wells were then emptied, and the cells from the undersides of the filter were pooled with those in the bottom wells with a filter tip. The reduced MTT (formazan) from top and bottom wells was solubilized with DMSO overnight, and absorbance (O.D.) at 515 nm was measured. The ratio of the O.D. from the bottom wells to that of the total (i.e., O.D. of top plus bottom wells) was taken as the invasive potential. […] The MTT assay procedure also normalizes the coincident inhibition due to the cytotoxic effects of the agents under investigation. Results presented are from three independent experiments.

[2] = test system: COLO 205 Cells; experiment: MTS cytotoxicity assay, COLO 205; details: two days
Method: (§3) A panel of chemically modified tetracycline compounds and doxycycline were tested for cytotoxicity against two carcinomas: COLO 205 (a human colon carcinoma-derived cell line) and the E-10 clone of MDA-MB-231 (a human breast carcinoma-derived cell line). Cytoxicity was measured using a conventional assay for viability with a tetrazolium salt (MTS). Cells were grown in media containing the CMTs at concentrations ranging from 5 μM to 100 μM for two days. The cells were then incubated with the MTS for several hours before removal of the supernatant medium for determination of formazan, which is generated only by the viable cells. Results are expressed as percent cytotoxicity, which is simply the percent decline in measured formazan concentration in the sampled medium.

[3] = test system: C8161 cells; experiment: C8161 cell proliferation (doubling time); assay type: cell-based, human; details: 50 μg/mL; for Doubling Time: on plastic, DMSO 22 hr; for increase of doubling time: versus DMSO
Method: Cell Culture and Maintenance: C8161 cells, a human melanoma cell line, were maintained in Dulbecco's modified Eagle's medium (DMEM; […] These cells were routinely screened for Mycoplasma contamination using the GenProbe Rapid Detection System (Fisher Scientific; Chicago, Ill.). Chemically Modified Tetracyclines: Fresh stock solutions of the chemically modified tetracycline compounds (2 mg/mL) were prepared for each experiment by hydrating in 2% dimethyl sulfoxide (DMSO)/water pH 10, then adjusting to pH 7.4 using 1.0 M HCl. […] Sigma Chem. Co.; control) or 50 μg/mL of doxycycline or the other CMTs (three wells on each plate per compound). […] The doubling time for C8161 cells in the presence of each compound was then determined and compared to the DMSO treated cells (control).

[4] = test system: C8161 human melanoma cells; experiment: In vitro invasion assay (MICS), laminin/collagen IV/gelatin matrix-coated filter; assay type: cell-based; details: 3, 20 and 50 μg/mL; for Percent Inhibition of invasive potential: 48 hr
Method: The in vitro invasive potentials of the control (DMSO only) and chemically-modified tetracycline treated cells were measured using a modified Boyden chamber as previously described (Membrane Invasion Culture System, MICS). An intervening barrier consisting of a polycarbonate filter containing 10 μm pores (Osmonics, Livermore, Calif.) coated with a defined matrix of human laminin/collagen IV/gelatin (Sigma, St. Louis, Mo.) was used for these studies. […] Doxycycline or individual CMTs were then added to different wells of the chamber at 3, 20 or 50 μg/mL 2 hr post-seeding and daily during the assay. After 48 hr, the cells were removed from the lower wells and the number of invasive cells was determined and compared to the original number of cells seeded into the upper wells. Where appropriate, data were corrected for proliferation during the period of the in vitro assay.

[5] = test system: C8161 cells; experiment: In vivo metastasis assay, C8161 cells i.v. in SCID mice; details: for Number of Lung Metastases/Mouse: Average ± SEM, control 231 ± 49
Method: Immunosuppressed mice (athymic nude/nude SCID females from Harlan Sprague Dawley) were housed in autoclaved cages with microisolator tops, and all manipulations of the animals were done in a laminar flow hood after wiping down both the hood, gloves and cages with ABQ sterilant. The mice were fed sterile Pico Lab Chow (Purina) and autoclaved St. Louis tap water. […] The compounds and control (sterile water plus 2% carboxymethyl cellulose) were kept stored at −80° C. wrapped in aluminum foil to prevent any light induced changes, and each day's supply was thawed just prior to use. Four compounds were tested for their effects on the metastatic potential of C8161 cells injected intravenously via the tail vein: […] The concentration of the compounds in the vials used to give the 100 mg/kg doses were 2.5 times that in the 40 mg/kg dose so that approximately the same volume was used in both cases, approximately 0.5 mL/animal. The experiments started with nine animals per group at day −4. On day zero, 2×10^5 C8161 cells in cold Hank's Balanced Salt Solution (HBSS) were injected intravenously via tail vein inoculation. The experiment was continued for an additional 24 days, at which time the animals were sacrificed and their lungs removed and fixed in a solution of Bouins/formaldehyde (5 parts:1 part). Tumors were quantitated on the entire surface of the lungs by rotating the lungs and counting the tumors on each lobe using a 6× magnifying glass. Statistical analysis was performed using the statistical package of Microsoft's Excel spreadsheet software.

[6] = target: T1, Gelatinase A (Homo sapiens, UniProt P08253); experiment: Zymography with densitometry of C8161 conditioned medium, gelatinase A; assay type: cell-based; details: 50 μg/mL, 24 hr
T1 construct: endogenous in cells; host or cells: C8161
T1 sequence (P08253 110-660): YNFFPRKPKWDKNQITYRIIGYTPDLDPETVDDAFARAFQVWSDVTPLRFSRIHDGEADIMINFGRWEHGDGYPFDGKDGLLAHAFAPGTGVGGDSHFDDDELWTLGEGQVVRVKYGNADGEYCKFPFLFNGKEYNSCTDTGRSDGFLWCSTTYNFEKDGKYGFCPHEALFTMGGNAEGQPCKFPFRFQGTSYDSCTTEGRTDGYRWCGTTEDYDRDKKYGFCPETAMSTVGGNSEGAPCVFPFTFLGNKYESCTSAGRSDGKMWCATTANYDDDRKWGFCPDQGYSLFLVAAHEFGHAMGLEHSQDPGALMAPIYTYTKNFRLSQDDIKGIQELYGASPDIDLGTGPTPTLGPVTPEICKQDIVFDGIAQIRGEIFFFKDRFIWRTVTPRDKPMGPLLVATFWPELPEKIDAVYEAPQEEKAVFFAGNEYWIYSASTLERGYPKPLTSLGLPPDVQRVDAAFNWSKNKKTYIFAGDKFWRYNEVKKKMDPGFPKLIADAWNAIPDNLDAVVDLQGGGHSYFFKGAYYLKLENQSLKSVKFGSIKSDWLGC
Method: (§2) Six hundred thousand (6×10^5) C8161 cells were seeded per well in a 12-well dish coated with a laminin/collagen IV/gelatin matrix in DMEM plus Mito+ and 0.1% gentamicin sulfate. After approximately 1 hr incubation to allow the cells to attach, 50 μg/mL of either doxycycline or one of the other CMTs was added per well and the dish then placed in a 37° C. humidified 5% CO2 incubator. After 24 hr, the supernatants were removed and centrifuged to remove any cells or debris. One volume of Laemmli sample buffer minus reductant was added to two volumes of the medium, and this sample electrophoresed without prior heating or boiling on a 10% SDS-PAGE containing 0.1% gelatin (samples normalized based on the same number of cells per volume of medium per time of incubation). After electrophoresis, the gels were washed with gentle shaking at room temperature for 30 min in 50 mM Tris-HCl (pH 7.5) plus 2.5% TRITON® X100 plus 50 μg/mL of the corresponding CMT used in the original treatment. The gel was then placed in incubation buffer (50 mM Tris-Cl/10 mM CaCl2/150 mM NaCl/0.05% NaN3) also containing 50 μg/mL of the corresponding CMT, and incubated at 37° C. for 20-24 hr. The gels were stained with Coomassie BBR-250, then destained with 10% methanol/10% acetic acid in water until the wash remained clear. A photographic negative of the gel was digitized using a video camera and Snappy Video Snapshot system (Play Inc., Rancho Cordova, Calif.). An integrated density was determined for each of the cleared zones of proteolysis using the software ImagePC8α (freely available from the National Institutes of Health), and the corresponding changes in gelatinolytic activities reported compared to the control samples normalized to a value of 1.0.

[7] = test system: E-10 Cells; experiment: MTS cytotoxicity assay, E-10; details: two days
Method: as §3

[8] = target: T2, Gelatinase B (Homo sapiens, UniProt P14780); experiment: Zymography with densitometry of C8161 conditioned medium, gelatinase B; assay type: cell-based; details: 50 μg/mL, 24 hr
T2 construct: endogenous in cells; host or cells: C8161
Method: as §2

[9] = test system: DU-145 and TSU-PR1 prostate cancer cell lines; experiment: Prostate cancer cell viability/proliferation (trypan blue, MTT); assay type: cell-based, human; details: exposure time not stated (24 hr or 48 hr)
Description: To determine the cytotoxicity of CMTs on prostate tumor cell lines, TSU-PR1 cells (and cells of other tumor cell lines) were exposed to various CMTs or to doxycycline for 24 hr or 48 hr in a complete medium. Cell viability (percent of live cells) was estimated by counting the cells following trypan blue staining. Cellular viability was also estimated by the tetrazolium dye reduction assay (MTT assay) (Lokeshwar et al. 1995b). Due to the aggressive proliferative capacity of cancer cells, it is assumed that viable cells are actively proliferating. Therefore, the measurement of viability was used as an estimate of proliferation. Results are expressed as Mean±SEM from three separate experiments.

[10] = test system: Dunning MAT LyLu cells; experiment: Cytotoxic effect on MAT LyLu cells (trypan blue); assay type: cell-based, rat; details: 24 hr or 48 hr exposure
Method: Cell viability was estimated by trypan blue staining following exposure to the drugs. The results of these studies are summarized in FIG. 4A (24 hours) and FIG. 4B (48 hr). Data are presented as Mean±SEM from three separate experiments.

[11] = Blood levels after oral gavage of adult rats
Description: In the treatment of certain localized cancers, the degree of hydrophilicity of the non-antimicrobial tetracycline compound can be of lesser importance.

[12] = Solubility in aqueous systems; assay type: physicochemical
[13] = test system: Dunning MAT LyLu cells; experiment: Matrigel invasion assay (Boyden chamber, MTT), MAT LyLu; assay type: cell-based, rat; details: MAT LyLu, 5 μg/mL, 48 hr
Method: as §1

T2 sequence (P14780 94-707): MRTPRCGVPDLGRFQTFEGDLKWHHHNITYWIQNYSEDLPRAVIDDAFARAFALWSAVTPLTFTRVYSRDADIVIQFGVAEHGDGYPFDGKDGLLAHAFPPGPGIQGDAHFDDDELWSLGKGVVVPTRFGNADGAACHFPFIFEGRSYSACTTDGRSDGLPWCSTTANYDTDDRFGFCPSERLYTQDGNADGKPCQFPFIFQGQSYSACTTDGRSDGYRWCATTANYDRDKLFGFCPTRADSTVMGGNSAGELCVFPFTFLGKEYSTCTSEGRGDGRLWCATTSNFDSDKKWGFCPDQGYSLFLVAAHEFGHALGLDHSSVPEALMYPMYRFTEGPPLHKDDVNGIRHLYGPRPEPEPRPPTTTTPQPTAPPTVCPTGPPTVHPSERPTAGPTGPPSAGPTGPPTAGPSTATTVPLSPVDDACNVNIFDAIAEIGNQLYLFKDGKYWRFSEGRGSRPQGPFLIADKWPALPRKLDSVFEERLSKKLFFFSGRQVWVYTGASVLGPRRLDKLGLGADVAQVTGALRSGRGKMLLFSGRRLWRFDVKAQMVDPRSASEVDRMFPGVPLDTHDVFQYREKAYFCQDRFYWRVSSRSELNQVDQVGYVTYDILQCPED

SMILES | percent cytotoxicity ([2]; 5 μM) | percent cytotoxicity ([2]; 10 μM) | percent cytotoxicity ([2]; 20 μM) | percent cytotoxicity ([2]; 50 μM) | percent cytotoxicity ([2]; 100 μM) | Doubling Time [3] | increase of doubling time [3] | Type of Inhibition [4] | Percent Inhibition of invasive potential [4] | Gelatinase A, integrated density normalized to control 1.00 [6] | percent cytotoxicity ([7]; 5 μM) | percent cytotoxicity ([7]; 10 μM) | percent cytotoxicity ([7]; 20 μM) | percent cytotoxicity ([7]; 50 μM) | percent cytotoxicity ([7]; 100 μM) | Gelatinase B, integrated density normalized to control 1.00 [8] | 50% inhibition dose (IC50), cell proliferation [9] | also measured
CC1(O)c2cccc(O)c2C(=O)C2=C(O)C3C(=O)C(C(N)=O)=C(O)CC3CC21 (stereo not drawn) [CMT-7, 4-de(dimethylamino)-12α-deoxytetracycline] | 0% | 0% | 0% | 0% | 29.4% | 24 h | approximately 9% | non | 15-55% | 0.17 | 0% | 0% | 0% | 0% | 8.3% | 1.22 | – | 50% inhibitory dose (IC50), Matrigel invasion [1]: > 100 µg/mL; Number of Lung Metastases/Mouse ([5]; 40 mg/kg daily intragastric): 136 ± 107; Number of Lung Metastases/Mouse ([5]; 100 mg/kg daily intragastric): 166 ± 101; effect on number of lung metastases (significance) ([5]; at either dosage, p>0.05): did not significantly reduce the number of lung metastases
CN(C)C1C(=O)C(C#N)=C(O)C2(O)C(=O)C3=C(O)c4c(O)cccc4C(C)(O)C3CC12 (stereo not drawn) [CMT-2, tetracyclinonitrile] | 2.7% | 4.5% | 0% | 7% | 16.3% | – | – | non-dose | ˜10% | 0.89 | 1.5% | 3.8% | 0.8% | 0% | 2.3% | 1.51 | 5.7 µg/mL | inhibition of cell proliferation (rank among tested drugs) [10]: most effective inhibitors of cell proliferation; blood levels ([11]; rat, in vivo, po): no detectable blood levels; solubility in aqueous systems [12]: low solubility in aqueous systems; inhibition of invasive/metastatic potential (Matrigel invasion) [13]: equally inhibited
CC1(O)c2cccc(O)c2C(=O)C2=C(O)C3(O)C(=O)C(C(N)=O)=C(O)C(O)C3CC21 (stereo not drawn) [CMT-6, 4-hydroxy-4-de(dimethylamino)tetracycline] | 1.7% | 0% | 0% | 0% | 22.2% | 24 h | approximately 9% | dose dependent | 8-50% | 0.07 | 0% | 6% | 3% | 7.6% | 16.7% | 0.51 | 120 µg/mL | blood levels ([11]; adult rats, oral gavage): no detectable blood levels
